Among the data in patent publication US20240317752A1, “6-SUBSTITUTED-9H-PURINE DERIVATIVES AND RELATED USES” (Black Diamond Therapeutics, Inc., priority 2021, published 2024) are GI50 values, retold here.

The target of the assay is T1, BaF3 BRAF-KIAA1549 fusion cells (Homo sapiens, UniProt P15056).
T1 construct: The BRAF-KIAA1549 fusion mutant was subcloned into pMXs-IRES-Blasticidin (RTV-016, Cell Biolabs, San Diego, CA); fused on or other part: Q9HCM3 (UPF0606 protein KIAA1549)
Kind of assay: BaF3 BRAF-KIAA1549 fusion cell proliferation assay (CellTiterGlo). In kind it is cell-based. The settings on record: 96 hours incubation, potency code. The protocol: Retroviral Production: The BRAF-KIAA1549 fusion mutant was subcloned into pMXs-IRES-Blasticidin (RTV-016, Cell Biolabs, San Diego, CA). Retrovirus was produced by transfection of HEK 293T cells with the retroviral BRAF mutant expression vector pMXs-IRES-Blasticidin (RTV-016, Cell Biolabs), pCMV-Gag-Pol vector and pCMV-VSV-G-Envelope vector. Briefly, HEK 293T cells were plated in Poly-D-lysine coated 6-well plate (2.5×10^5 cells per well) and incubated overnight. The next day, retroviral plasmids (1 μg of BRAF-KIAA fusion mutant, 0.32 μg of pCMV-Gag-Pol and 0.165 μg pCMV-VSV-G) were mixed in 300 μL of Optimem (31985, Life Technologies). The mixture was incubated at room temperature for 5 minutes and then added to Optimem containing transfection reagent Lipofectamine (11668, Invitrogen) and incubated for 20 minutes. The mixture was then added dropwise to HEK 293T cells. The next day the medium was replaced with fresh culture medium and retrovirus was harvested at 24 hours.
Generation of BRAF-KIAA1549 fusion stable cell line: BaF3 cells were plated in V-bottom 96 well plate (COSTAR #3894) in 80 μL of RPMI/10% FBS and 0.01 ng/ml mouse IL-3; supplemented with 8 μg/mL polybrene (4×10^4 cells/well). Cells were transduced with 20 μL of BRAF-KIAA1549 fusion viral supernatant by centrifuging for 30 minutes at 1000 rpm. Cells were placed in a 37° C. incubator overnight. Next day 100 μL of RPMI/10% FBS and 0.01 ng/ml mouse IL-3 was added. After 24 hours, 100 μL of cells were transferred to a 24 well plate containing 900 μL of RPMI/10% FBS and 15 μg/mL Blasticidin. Contents of the 24 well plate were sampled for cell viability via CellTiterGlo (Promega) over a 2-week period.
Assay for cell proliferation: BaF3 BRAF-KIAA1549 fusion cells were resuspended at 1.5×10^5c/mL in RPMI containing 10% Heat Inactivated FBS, 1% L-glutamine and dispensed in duplicate ([…]) into 384 well plates. To determine the effect of compound on cell proliferation, BaF3 BRAF-KIAA1549 fusion cells were incubated for 96 hours in the presence of vehicle control (DMSO) or compound at varying concentrations. Inhibition of cell growth was determined by luminescent quantification (Envision by Perkin Elmer) of intracellular ATP content using CellTiterGlo (Promega), according to the protocol provided by the manufacturer. To determine the IC50 values, the vehicle-treated cells were normalized as viable cells and analyzed using the CDD Vault, Collaborative Drug Discovery, Burlingame, CA (the Levenberg-Marquardt algorithm; Levenberg, K., […]; Marquardt, D., 1963).
Tables A1 and A2 assign each compound a code for potency in the BaF3 BRAF-KIAA1549 fusion cell proliferation assay: A, B, C, or D. According to the code, A represents an IC50 value <20 nM; B represents an IC50 value ≥20 nM and <100 nM; C represents an IC50 value ≥100 nM and <500 nM; and D represents an IC50 value ≥500 nM.
In general terms: In ATP-based viability assays light output follows the ATP content of the culture.

T1 sequence (P15056 whole entry, change not shown, the tested form may be a part): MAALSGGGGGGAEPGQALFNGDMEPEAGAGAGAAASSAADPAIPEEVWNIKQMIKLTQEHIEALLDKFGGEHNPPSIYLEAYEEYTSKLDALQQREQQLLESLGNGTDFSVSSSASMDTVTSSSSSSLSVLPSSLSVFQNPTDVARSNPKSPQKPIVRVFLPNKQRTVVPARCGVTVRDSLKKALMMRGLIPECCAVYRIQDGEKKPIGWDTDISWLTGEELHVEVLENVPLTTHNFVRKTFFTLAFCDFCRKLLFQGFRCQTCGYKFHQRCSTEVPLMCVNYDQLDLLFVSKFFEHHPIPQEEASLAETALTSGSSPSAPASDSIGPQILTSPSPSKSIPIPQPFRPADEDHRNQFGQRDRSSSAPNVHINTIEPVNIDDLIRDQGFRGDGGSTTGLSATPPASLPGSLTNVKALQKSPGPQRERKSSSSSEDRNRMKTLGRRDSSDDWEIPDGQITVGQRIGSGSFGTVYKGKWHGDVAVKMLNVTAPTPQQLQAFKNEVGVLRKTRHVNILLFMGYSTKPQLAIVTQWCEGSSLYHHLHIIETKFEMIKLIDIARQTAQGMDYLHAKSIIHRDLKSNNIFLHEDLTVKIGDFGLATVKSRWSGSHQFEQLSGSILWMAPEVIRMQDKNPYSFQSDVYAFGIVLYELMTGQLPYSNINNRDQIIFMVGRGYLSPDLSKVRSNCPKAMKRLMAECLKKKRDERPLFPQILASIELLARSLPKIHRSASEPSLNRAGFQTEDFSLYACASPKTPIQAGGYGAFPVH

With `Cc1ncc(C(=O)Nc2cccc(C(F)(F)F)c2)cc1Nc1ncccc1-c1ncnc2[nH]cnc12` [Compound I-52, 5-((3-(9H-purin-6-yl)pyridin-2-yl)amino)-6-methyl-N-(3-(trifluoromethyl)phenyl)nicotinamide], the GI50 lay within 20 to 100 nM.

Regarding `Cc1c(F)cc(C(=O)Nc2cccc(C(F)(F)F)c2)cc1Nc1ncccc1-c1ncnc2[nH]cnc12` [Compound I-53, 3-((3-(9H-purin-6-yl)pyridin-2-yl)amino)-5-fluoro-4-methyl-N-(3-(trifluoromethyl)phenyl)benzamide], the GI50 was in the range of 20 to 100 nM.

For `Cc1ncc(NC(=O)c2ccnc(C3(C#N)CC3)c2)cc1Nc1ncccc1-c1ncnc2[nH]cnc12` [Compound I-54, N-(5-(3-(9H-purin-6-yl)pyridin-2-ylamino)-6-methylpyridin-3-yl)-2-(1-cyanocyclopropyl)isonicotinamide], the 50% growth inhibitory concentration (GI50) lay within 20 to 100 nM.

`Cc1ccc(NC(=O)c2cc(C3CC3)ccn2)cc1Nc1ncccc1-c1ncnc2[nH]cnc12` [Compound I-55, N-(3-(3-(9H-purin-6-yl)pyridin-2-ylamino)-4-methylphenyl)-4-cyclopropylpicolinamide] came in with a GI50 below 20 nM.

For the molecule `Cc1ccc(NC(=O)c2cc(C3CC3)c(Cl)cn2)cc1Nc1ncccc1-c1ncnc2[nH]cnc12` [Compound I-56, N-(3-((3-(9H-purin-6-yl)pyridin-2-yl)amino)-4-methylphenyl)-5-chloro-4-cyclopropylpicolinamide], the concentration for 50% growth inhibition (GI50) was at least 500 nM.

For `Cc1ccc(NC(=O)c2cccc(C(C)(C)C#N)c2)nc1Nc1ncccc1-c1ncnc2[nH]cnc12` [Compound I-57, N-(6-((3-(9H-purin-6-yl)pyridin-2-yl)amino)-5-methylpyridin-2-yl)-3-(2-cyanopropan-2-yl)benzamide], the GI50 is at least 500 nM.

`Cc1ncc(C(=O)Nc2cccc(C3(C#N)CC3)c2)cc1Nc1ncccc1-c1ncnc2[nH]cnc12` [Compound I-58, 5-((3-(9H-purin-6-yl)pyridin-2-yl)amino)-N-(3-(1-cyanocyclopropyl)phenyl)-6-methylnicotinamide] yielded a GI50 of 20 to 100 nM.

In turn, `Cc1ccc(NC(=O)c2ccc(C(F)(F)F)c(C#N)n2)cc1Nc1ncccc1-c1ncnc2[nH]cnc12` [Compound I-59, N-(3-((3-(9H-purin-6-yl)pyridin-2-yl)amino)-4-methylphenyl)-6-cyano-5-(trifluoromethyl)picolinamide] gave a 50% growth inhibitory concentration (GI50) of 100 to 500 nM.

`Cc1c(F)cc(C(=O)Nc2cccc(C3(C#N)CC3)c2)cc1Nc1ncccc1-c1ncnc2[nH]cnc12` [Compound I-60, 3-((3-(9H-purin-6-yl)pyridin-2-yl)amino)-N-(3-(1-cyanocyclopropyl)phenyl)-5-fluoro-4-methylbenzamide] registered a concentration for 50% growth inhibition (GI50) below 20 nM.

With `Cc1ncc(NC(=O)c2ccnc(C3(F)CC3)c2)cc1Nc1ncccc1-c1ncnc2[nH]cnc12` [Compound I-61, N-(5-((3-(9H-purin-6-yl)pyridin-2-yl)amino)-6-methylpyridin-3-yl)-2-(1-fluorocyclopropyl)isonicotinamide], the GI50 was 20 to 100 nM.

For the molecule `Cc1c(F)cc(NC(=O)c2ccnc(C3(C#N)CC3)c2)cc1Nc1ncccc1-c1ncnc2[nH]cnc12` [Compound I-62, N-(3-((3-(9H-purin-6-yl)pyridin-2-yl)amino)-5-fluoro-4-methylphenyl)-2-(1-cyanocyclopropyl)isonicotinamide], the concentration for 50% growth inhibition (GI50) was below 20 nM.

`Cc1cc(NC(=O)c2cc(C(F)(F)F)ccn2)cc(Nc2ncccc2-c2ncnc3[nH]cnc23)c1C` [Compound I-63, N-(3-((3-(9H-purin-6-yl)pyridin-2-yl)amino)-4,5-dimethylphenyl)-4-(trifluoromethyl)picolinamide] returned a GI50 of 100 to 500 nM.

In the case of `Cc1ccc(NC(=O)c2cc(C3(C#N)CCC3)ccn2)cc1Nc1ncccc1-c1ncnc2[nH]cnc12` [Compound I-64, N-(3-((3-(9H-purin-6-yl)pyridin-2-yl)amino)-4-methylphenyl)-4-(1-cyanocyclobutyl)picolinamide], the concentration for 50% growth inhibition (GI50) is below 20 nM.

Take `Cc1ccc(NC(=O)c2nccc(C(F)(F)F)c2C)cc1Nc1ncccc1-c1ncnc2[nH]cnc12` [Compound I-65, N-(3-((3-(9H-purin-6-yl)pyridin-2-yl)amino)-4-methylphenyl)-3-methyl-4-(trifluoromethyl)picolinamide]: the concentration for 50% growth inhibition (GI50) is below 20 nM.

On to `Cc1ccc(NC(=O)c2ccnc(C3(C#N)CCC3)c2)cc1Nc1ncccc1-c1ncnc2[nH]cnc12` [Compound I-66, N-(3-((3-(9H-purin-6-yl)pyridin-2-yl)amino)-4-methylphenyl)-2-(1-cyanocyclobutyl)isonicotinamide], for which the GI50 is below 20 nM.

Turning to `Cc1ccc(-c2ncnc3[nH]cnc23)c(Nc2cc(NC(=O)c3cc(C(F)(F)F)ccn3)ccc2C)n1` [Compound I-67, N-(4-methyl-3-((6-methyl-3-(9H-purin-6-yl)pyridin-2-yl)amino)phenyl)-4-(trifluoromethyl)picolinamide], the concentration for 50% growth inhibition (GI50) is 20 to 100 nM.

On to `CCc1ccc(NC(=O)c2cc(C(F)(F)F)ccn2)cc1Nc1ncccc1-c1ncnc2[nH]cnc12` [Compound I-68, N-(3-((3-(9H-purin-6-yl)pyridin-2-yl)amino)-4-ethylphenyl)-4-(trifluoromethyl)picolinamide], for which the GI50 lay within 20 to 100 nM.

The molecule `Cc1ccc(NC(=O)c2ccc(Cl)c(OC(F)(F)F)c2)cc1Nc1ncccc1-c1ncnc2[nH]cnc12` [Compound I-69, N-(3-((3-(9H-purin-6-yl)pyridin-2-yl)amino)-4-methylphenyl)-4-chloro-3-(trifluoromethoxy)benzamide] gave a GI50 of 20 to 100 nM.

Molecule `Cc1ccc(NC(=O)c2cnc(C(F)(F)F)c(C#N)c2)cc1Nc1ncccc1-c1ncnc2[nH]cnc12` [Compound I-70, N-(3-((3-(9H-purin-6-yl)pyridin-2-yl)amino)-4-methylphenyl)-5-cyano-6-(trifluoromethyl)nicotinamide] returned a GI50 of 20 to 100 nM.

With `Cc1cnc(C(=O)Nc2ccc(C)c(Nc3ncccc3-c3ncnc4[nH]cnc34)c2)cc1C#N` [Compound I-71, N-(3-((3-(9H-purin-6-yl)pyridin-2-yl)amino)-4-methylphenyl)-4-cyano-5-methylpicolinamide], the GI50 lay in the range of 20 to 100 nM.

In the case of `Cc1c(F)cc(NC(=O)c2ccnc(C3(F)CC3)c2)cc1Nc1ncccc1-c1ncnc2[nH]cnc12` [Compound I-72, N-(3-((3-(9H-purin-6-yl)pyridin-2-yl)amino)-5-fluoro-4-methylphenyl)-2-(1-fluorocyclopropyl)isonicotinamide], the concentration for 50% growth inhibition (GI50) is below 20 nM.

`Cc1ccc(NC(=O)c2ccc3c(c2)OCO3)cc1Nc1ncccc1-c1ncnc2[nH]cnc12` [Compound I-74, N-(3-((3-(9H-purin-6-yl)pyridin-2-yl)amino)-4-methylphenyl)benzo[d][1,3]dioxole-5-carboxamide] had a 50% growth inhibitory concentration (GI50) of 20 to 100 nM.

For the molecule `Cc1ccc(NC(=O)CC2CCOC(C(F)(F)F)C2)cc1Nc1ncccc1-c1ncnc2[nH]cnc12` (stereo not drawn) [Compound I-75, N-(3-((3-(9H-purin-6-yl)pyridin-2-yl)amino)-4-methylphenyl)-2-(2-(trifluoromethyl)tetrahydro-2H-pyran-4-yl)acetamide], the 50% growth inhibitory concentration (GI50) was in the range of 20 to 100 nM.

The molecule `Cc1ccc(NC(=O)CC2CCNC(C(F)(F)F)C2)cc1Nc1ncccc1-c1ncnc2[nH]cnc12` (stereo not drawn) [Compound I-76, N-(3-((3-(9H-purin-6-yl)pyridin-2-yl)amino)-4-methylphenyl)-2-(2-(trifluoromethyl)piperidin-4-yl)acetamide] registered a GI50 of at least 500 nM.

Broadly, the GI50 is the concentration that inhibits growth by half. A lower GI50 goes with greater sensitivity of the cells.
